From US11214803B2, “Modulators of YAP1 expression” (Ionis Pharmaceuticals, Inc., priority 2019, dated 2022)
Strand notation (5' to 3'): a small letter for the sugar, then the base; units joined by * are phosphorothioate-linked, units joined directly phosphodiester-linked; [ ] holds rarer units or linkages, { } end groups; capitals alone tell only the bases. k = constrained ethyl (cEt); [5mC] = 5-methylcytosine; d = 2'-deoxy (DNA)

System: Yap1 mRNA
Test: Antisense inhibition of human Yap1 in A-431 cells by cEt gapmers, single dose (Example 2, RTS4814)
Type: cell-based
Summary of the method: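 A-431 cells (5,000/well) took up 2,000 nM 3-10-3 cEt gapmer by free uptake for ~48 h. Yap1 mRNA was quantified by qRT-PCR with primer probe set RTS4814, normalized to RIBOGREEN total RNA, and reported as % of untreated control.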

[1] = A-431 cells, 5,000 cells per well, free uptake, 2,000 nM modified oligonucleotide, approx. 48 hours, RTS4814, normalized to RIBOGREEN, Table 4, asterisk (*) = targets amplicon region of primer probe set
[2] = Table 24, Yap1 mRNA as percent of untreated control, 3-10-3 cEt gapmers targeting SEQ ID NO.: 1, and 2
[3] = Table 23, Yap1 mRNA as percent of untreated control, 3-10-3 cEt gapmers, single dose
[4] = Table 21, Yap1 mRNA, percent of untreated control, 3-10-3 cEt gapmers targeting SEQ ID NO.: 1 and 2
[5] = Yap1 mRNA as percent of untreated control, A-431 cells, 3-10-3 cEt gapmers targeting SEQ ID NO.: 1, and 2, Table 31
[6] = Table 33, Yap1 mRNA, percent of untreated control, 3-10-3 cEt gapmers targeting SEQ ID NO.: 1, and 2
[7] = Table 18, A-431 cells, 5,000 cells per well, free uptake, 2,000 nM modified oligonucleotide, approx. 48 hours, RTS4814, normalized to RIBOGREEN, Yap1 mRNA as percent of untreated control
[8] = Yap1 mRNA as percent of untreated control, A-431 cells, 3-10-3 cEt gapmers targeting SEQ ID NO.: 1, and 2, Table 30
[9] = Table 32, Yap1 mRNA, percent of untreated control, 3-10-3 cEt gapmers targeting SEQ ID NO.: 1, and 2
[10] = Table 19, A-431 cells, 5,000 cells per well, free uptake, 2,000 nM modified oligonucleotide, approx. 48 hours, RTS4814, normalized to RIBOGREEN, Yap1 mRNA as percent of untreated control
[11] = Table 6, A-431 cells, 5,000 cells per well, free uptake, 2,000 nM modified oligonucleotide, approx. 48 hours, RTS4814, normalized to RIBOGREEN, Yap1 mRNA relative to untreated control cells
[12] = Table 25, Yap1 mRNA as percent of untreated control, 3-10-3 cEt gapmers targeting SEQ ID NO.: 1, and 2
[13] = Table 5, A-431 cells, 5,000 cells per well, free uptake, 2,000 nM modified oligonucleotide, approx. 48 hours, RTS4814, normalized to RIBOGREEN, Yap1 mRNA relative to untreated control cells

716481 (kT*k[5mC]*kA*dG*d[5mC]*dA*dT*dA*dG*dA*dA*dG*dT*kA*kG*kG; antisense) [Compound 716481]
YAP1 (% UTC) [1]: 23 % UTC

1075626 (k[5mC]*kA*kT*dT*dA*dG*d[5mC]*d[5mC]*dA*dA*dA*dG*d[5mC]*kT*k[5mC]*kA; antisense) [Compound 1075626]
YAP1 (% UTC) [2]: 34 % UTC

1076553 (antisense kT*kG*kG*dG*dA*dA*dT*dA*dA*dT*dT*dT*dG*kG*k[5mC]*k[5mC]) [Compound 1076553]
YAP1 (% UTC) [3]: 69 % UTC

1075207 (antisense k[5mC]*kT*kA*dT*dT*dA*dA*dA*dT*dG*dA*dG*d[5mC]*kA*k[5mC]*k[5mC]) [Compound 1075207]
YAP1 (% UTC) [4]: 4 % UTC

1074545 (kA*k[5mC]*kT*d[5mC]*d[5mC]*d[5mC]*d[5mC]*dT*dA*dG*dG*d[5mC]*dA*k[5mC]*kT*kA; antisense) [compound 1074545]
YAP1 (% UTC) [5]: 18 % UTC

1075795 (kG*kT*kA*dA*dT*dT*dA*dT*dA*dT*dA*d[5mC]*d[5mC]*k[5mC]*kA*k[5mC]; antisense) [compound 1075795]
YAP1 (% UTC) [6]: 66 % UTC

1075684 (kT*k[5mC]*kT*dG*dA*dA*dA*dA*dA*dG*dT*dT*dA*kT*kG*k[5mC]; antisense) [Compound 1075684]
YAP1 (% UTC) [7]: 78 % UTC

1074249 (antisense kT*kG*kA*dT*d[5mC]*dG*dA*dT*dG*dT*dG*dA*dT*kT*kT*kA) [Compound 1074249]
YAP1 (% UTC) [3]: 23 % UTC

1075504 (k[5mC]*kT*kT*dA*dA*dA*dT*dG*dA*dG*dA*dG*dA*kA*k[5mC]*k[5mC]; antisense) [compound 1075504]
YAP1 (% UTC) [8]: 71 % UTC

1074642 (antisense kG*kG*kG*d[5mC]*d[5mC]*dA*dA*dA*dA*dT*dA*d[5mC]*dT*kT*kA*kG) [compound 1074642]
YAP1 (% UTC) [9]: 78 % UTC

1074602 (antisense kT*k[5mC]*k[5mC]*dA*dG*d[5mC]*dT*dA*dA*d[5mC]*dT*d[5mC]*dA*kA*kA*kA) [Compound 1074602]
YAP1 (% UTC) [2]: 24 % UTC

1075441 (antisense kG*kA*kA*dT*dT*dA*dA*dA*dG*d[5mC]*dA*dG*dT*kG*k[5mC]*k[5mC]) [compound 1075441]
YAP1 (% UTC) [5]: 24 % UTC

1074919 (antisense k[5mC]*kT*k[5mC]*dA*dA*dG*dT*dT*dA*d[5mC]*dA*dT*d[5mC]*k[5mC]*k[5mC]*kG) [Compound 1074919]
YAP1 (% UTC) [4]: 48 % UTC

1074694 (antisense k[5mC]*k[5mC]*k[5mC]*d[5mC]*d[5mC]*d[5mC]*d[5mC]*d[5mC]*d[5mC]*dA*dA*dA*d[5mC]*kT*kT*kT) [Compound 1074694]
YAP1 (% UTC) (Table 20, Yap1 mRNA, percent of untreated control, 3-10-3 cEt gapmers targeting SEQ ID NO.: 1 and 2): 79 % UTC

1074373 (antisense kG*k[5mC]*kT*dT*dT*dG*dG*dT*dT*dG*dA*dT*dA*kG*kT*kA) [Compound 1074373]
YAP1 (% UTC) [10]: 26 % UTC

1075091 (kA*kA*kA*d[5mC]*dA*dA*d[5mC]*dG*dA*dA*dT*dG*dA*kT*kT*kG; antisense) [compound 1075091]
YAP1 (% UTC) [6]: 65 % UTC

716351 (kG*kG*kT*d[5mC]*dT*dG*dG*d[5mC]*dG*dG*d[5mC]*dT*dG*k[5mC]*kG*k[5mC]; antisense) [Compound 716351]
YAP1 (% UTC) [11]: 112 % UTC

1075665 (antisense kA*kT*kT*dT*dA*dG*dT*dT*dG*dT*dG*d[5mC]*dA*k[5mC]*kA*kG) [compound 1075665]
YAP1 (% UTC) [5]: 87 % UTC

1076018 (kA*k[5mC]*kT*dA*dA*dT*dA*dG*dG*dA*dT*dG*dG*kA*kT*kT; antisense) [compound 1076018]
YAP1 (% UTC) [9]: 15 % UTC

1074833 (kT*kG*k[5mC]*dG*dA*dG*dG*dA*dT*dA*dA*dA*dA*kT*k[5mC]*k[5mC]; antisense) [compound 1074833]
YAP1 (% UTC) [5]: 17 % UTC

1075943 (kG*kT*kA*dT*dA*dT*d[5mC]*dA*dA*dA*d[5mC]*d[5mC]*dT*kT*kT*kT; antisense) [Compound 1075943]
YAP1 (% UTC) [4]: 15 % UTC

1075748 (kG*kT*kA*dA*dA*dT*d[5mC]*dA*dA*dG*dT*dT*dG*k[5mC]*kA*kT; antisense) [Compound 1075748]
YAP1 (% UTC) [7]: 7 % UTC

1075781 (k[5mC]*kA*kT*dA*dT*dA*dT*dT*dG*dT*dG*dA*d[5mC]*kT*kT*k[5mC]; antisense) [Compound 1075781]
YAP1 (% UTC) [10]: 2 % UTC

1075659 (kA*kA*kG*dT*dA*dA*dA*dA*dA*dA*d[5mC]*dG*dG*kT*kT*kT; antisense) [Compound 1075659]
YAP1 (% UTC) [12]: 125 % UTC

716574 (kT*kA*k[5mC]*dA*d[5mC]*dT*dG*dT*dA*dT*dA*dT*dG*kT*kT*k[5mC]; antisense) [Compound 716574]
YAP1 (% UTC) [1]: 91 % UTC

1075017 (antisense k[5mC]*kT*kT*dA*dA*dA*dG*dT*dG*dA*dT*dA*d[5mC]*kA*k[5mC]*k[5mC]) [Compound 1075017]
YAP1 (% UTC) [3]: 19 % UTC

716433 (kA*kG*k[5mC]*dA*dT*d[5mC]*dT*dG*dA*d[5mC]*dT*dT*d[5mC]*kT*kA*kA; antisense) [Compound 716433]
YAP1 (% UTC) [1]: 20 % UTC

1075787 (k[5mC]*kT*kT*dA*dA*dG*dG*dA*dT*dT*dG*dG*d[5mC]*kT*kA*kT; antisense) [Compound 1075787]
YAP1 (% UTC) [12]: 28 % UTC

1074855 (antisense kG*kT*kG*d[5mC]*dA*dT*dT*dA*dA*dA*dG*dA*dA*kT*kT*k[5mC]) [Compound 1074855]
YAP1 (% UTC) [4]: 29 % UTC

1076434 (k[5mC]*kT*kT*dT*dA*dG*dG*dT*dT*dT*dA*dT*dG*k[5mC]*k[5mC]*kT; antisense) [compound 1076434]
YAP1 (% UTC) [9]: 25 % UTC

1076048 (kG*kA*kT*dT*dA*dA*dA*dG*dG*d[5mC]*dT*dG*dG*kA*kA*kG; antisense) [compound 1076048]
YAP1 (% UTC) [8]: 32 % UTC

716450 (kA*kA*k[5mC]*dA*dG*dA*dT*dT*d[5mC]*dA*d[5mC]*dT*dA*kA*kT*kA; antisense) [Compound 716450]
YAP1 (% UTC) [11]: 83 % UTC

716566 (kG*kG*kT*dA*dA*d[5mC]*dT*d[5mC]*dT*dT*d[5mC]*dT*dT*kT*k[5mC]*k[5mC]; antisense) [Compound 716566]
YAP1 (% UTC) [13]: 102 % UTC

1074825 (kA*k[5mC]*k[5mC]*dT*dG*dA*dG*d[5mC]*dA*d[5mC]*dT*d[5mC]*dA*kT*kT*kT; antisense) [Compound 1074825]
YAP1 (% UTC) [3]: 36 % UTC

716500 (kA*kA*k[5mC]*dT*dT*d[5mC]*dT*dT*dA*d[5mC]*dT*dT*d[5mC]*k[5mC]*kA*kA; antisense) [Compound 716500]
YAP1 (% UTC) [13]: 18 % UTC

1075275 (antisense k[5mC]*kT*kA*dG*dA*dA*dA*dG*dG*d[5mC]*d[5mC]*dA*dT*kG*kT*kA) [Compound 1075275]
YAP1 (% UTC) [12]: 76 % UTC

1075763 (kA*kT*kT*dT*dA*dG*dG*d[5mC]*dT*dT*dT*dG*dG*kG*kT*kT; antisense) [compound 1075763]
YAP1 (% UTC) [6]: 16 % UTC

716485 (kA*k[5mC]*kT*dA*d[5mC]*d[5mC]*dA*dA*dT*dA*dT*dA*d[5mC]*kA*kT*kT; antisense) [Compound 716485]
YAP1 (% UTC) [13]: 84 % UTC

716535 (antisense k[5mC]*k[5mC]*kT*dG*dA*d[5mC]*dT*dG*dA*dA*dA*dA*dT*kA*kA*k[5mC]) [Compound 716535]
YAP1 (% UTC) [1]: 86 % UTC
